# Results published in US9045401B2, “Methods for treating or ameliorating a melanoma and killing melanoma cells” (THE REGENTS OF THE UNIVERSITY OF CALIFORNIA, priority 2007, dated 2015).
# Legend:
# Jurkat cells = test: apoptosis of Jurkat cells by FACS analysis of DNA content; type: cell-based; settings: 50 or 300 nM, 6 hours
# Method: FIG. 28(B): A549 cells were fixed and costained using antibodies directed against ceramide (red channel) (Bars in A/B=[…]). Arrows indicate regions of “blebbing.” The nuclear compartment was visualized using DAPI to stain DNA (blue channel). The assessments were performed two hours after treatment with 300 nM ScA. FIG. 28(C): Immunoblot analysis of Jurkat cells was performed following treatment with 100 nM ScA. 25 μg of cell lysates was probed for caspases 8, 3 and 9 and for PARP and actin (loading control) as indicated. FIG. 28(D): Caspase 8 deficient (Casp 8), FADD deficient (FADD −) or parental Jurkat cells (Jurkat) were incubated with 50 or 300 nM for 6 hours and analyzed for the presence of apoptotic cells via FACs analysis of DNA content. Results shown are the mean and standard error of triplicate determinations. […] Viability was measured by XTT assay after 72 hours, and normalized to controls not treated with drug. FIG. 28(F): similarly, the viability of neuroblastoma cultures deficient in caspase expression, or reconstituted for caspase 8 expression, was determined as for the A549 cells above. […]
# FACS analysis Cell viability was analyzed by flow cytometry following propidium iodide (PI) staining, as described elsewhere (37). […] The extent of apoptosis was determined by plotting PI fluorescence versus the forward scatter parameter, using CELL QUEST™ software.
# [1] = system: chick chorioallantoic membrane; test: bFGF-induced angiogenesis in chick chorioallantoic membrane; type: in vivo; settings: local introduction, 100 ng bFGF disks, 72 hours
# Method: FIG. 31(A-F): Transgenic Tg(fli1:EGFP) zebrafish embryos in which GFP is expressed in endothelial cells were incubated without (A) or with increasing concentrations of ScA: 80 nM in FIG. 31(B), 160 nM in FIG. 31(C), 300 nM in FIG. 31(D) 1.6 μM in FIG. 31(E) or 3 μM in FIG. 31(F), and blood vessel morphology recorded by fluorescence microscopy. FIG. 31(G) Filter disks impregnated with 100 ng of bFGF were placed on the chorioallantoic membrane of eleven day old chicks to induce angiogenesis in the absence or presence of ScA, as shown. After 72 hours (h), disks were removed and the vascularity of the underlying chorioallantoic membrane determined by direct counting of branch points using a dissecting microscope. FIG. 31(H): NB7 neuroblastoma cells lacking caspase 8 (filled bar) or NB7-C8 cells reconstituted for caspase 8 expression (open bars) were seeded into ten day old chick chorioallantoic membranes to form tumors. After 72 hours, ScA was added topically to each growing tumor mass. Tumors were harvested and resected on day 8, and mass (wet weight) determined. Data shown is the mean±SD (N=8-12).
# Chick Chorioallantoic membrane studies. The CAM studies were performed using 10 day old chick embryos as we've previously described (36). […]
smiles,measurement,setting,value
"C=CC/C=C/N(C)C(=O)CCCCCCCC/C=C/[C@H](CSSC[C@@H](/C=C/CCCCCCCCC(=O)N(C)/C=C/CC=C)NC(C)=O)NC(C)=O [somocystinamide A, Somocystinamide A]",ScA-mediated killing,Jurkat cells; Jurkat cells lacking FADD,protected from ScA-mediated killing
same,apoptosis,Jurkat cells; caspase 8-deficient Jurkat cells compared to wild type,dramatically decreased
same,growth factor-induced angiogenesis,[1],potently blocked growth factor-induced angiogenesis
